The structures appear in SMILES notation. The source made the active and inactive calls. The rule behind the calls is not given here.

Holding throughout (format): functional, organism-based
The subject of one experiment is Bacillus subtilis. Kind of experiment: Antibacterial activity against Bacillus subtilis 5262 ATCC 6633.
The test system of another experiment is Staphylococcus aureus. The experiment can be described thus: Antibacterial activity against Staphylococcus aureus 209P ATCC 53156.
For a further experiment, the system named is Pseudomonas aeruginosa. The experiment can be described thus: Antibacterial activity against Pseudomonas aeruginosa.
The next experiment has as its system Escherichia coli. The experiment can be described thus: Antibacterial activity against Escherichia coli.

As to `CO[C@]12C(C=O)=C[C@@H]3CC(C)(C)C[C@@H]3[C@@]1(C)C[C@H]2OC(=O)c1c(C)cc(O)cc1O`, the result in the experiment on Bacillus subtilis and with Staphylococcus aureus was Active. In addition, the outcome in the experiment on Pseudomonas aeruginosa and with Escherichia coli was inactive.

These data come from ChEMBL document CHEMBL1151639, “Antibacterial sesquiterpene aryl esters from Armillaria mellea” (J Nat Prod, 1985).
